From the supplement of paper PMC10307832

What was measured:
Test in all cases: relative viability (nuclei count vs DMSO), 5 days (fraction); higher = more cells survive
Tosedostat + Navitoclax = compound: CC(C)C[C@@H](C(=O)N[C@H](C(=O)OC1CCCC1)c1ccccc1)[C@H](O)C(=O)NO [Tosedostat] + CC1(C)CCC(c2ccc(Cl)cc2)=C(CN2CCN(c3ccc(C(=O)NS(=O)(=O)c4ccc(N[C@H](CCN5CCOCC5)CSc5ccccc5)c(S(=O)(=O)C(F)(F)F)c4)cc3)CC2)C1 [Navitoclax] (partner 0.5 µM)
In short: (§1)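 For relative viability, nuclei counts in treated wells were divided by those in vehicle wells. Lung cancer cell lines had been pin-tool dosed in 1536-well plates the day after seeding and cultured for 5 days, then fixed and stained in one step (final 0.05% Triton X-100, 1% formaldehyde, 1 ug/ml Hoechst) and imaged at 4×. Doses were one drug alone or a fixed anchor-drug dose plus five library-drug doses (not always all listed) in √10 steps, and values are duplicate-plate medians.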

Tosedostat + Foretinib = compound: CC(C)C[C@@H](C(=O)N[C@H](C(=O)OC1CCCC1)c1ccccc1)[C@H](O)C(=O)NO [Tosedostat] + COc1cc2c(Oc3ccc(NC(=O)C4(C(=O)Nc5ccc(F)cc5)CC4)cc3F)ccnc2cc1OCCCN1CCOCC1 [Foretinib] (partner 0.25 µM)
In short: as §1

[1] = compound: CC1=NN=C(O1)C2=NN=C(C=C2)N3CCC(CC3)OC4=C(C=CC(=C4)F)Cl
In short: (§2)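 Five library-drug doses, separated by factors of √10, were pinned into 1536-well plates holding lung cancer cell lines after an overnight stay at 37 °C. Cells were fixed, permeabilised and Hoechst-stained in one step after 5 days without medium change, then imaged at 4×. Viability compares treated-well with vehicle-well nuclei, counted in MetaXpress, as a median across plates. Passing plates had control CV below 25% and at least one doubling.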

Tosedostat = compound: CC(C)C[C@@H](C(=O)N[C@H](C(=O)OC1CCCC1)c1ccccc1)[C@H](O)C(=O)NO [Tosedostat]
In short: as §2

Cell Line | relative viability (Tosedostat + Navitoclax; first compound 0.02 µM) | relative viability (Tosedostat + Navitoclax; first compound 0.06325 µM) | relative viability (Tosedostat + Navitoclax; first compound 0.2 µM) | relative viability (Tosedostat + Navitoclax; first compound 0.6325 µM) | relative viability (Tosedostat + Navitoclax; first compound 2 µM) | relative viability (Tosedostat + Foretinib; first compound 0.02 µM) | relative viability (Tosedostat + Foretinib; first compound 0.06325 µM) | relative viability (Tosedostat + Foretinib; first compound 0.2 µM) | relative viability (Tosedostat + Foretinib; first compound 2 µM) | relative viability ([1]; 0.253 µM) | relative viability ([1]; 0.8 µM) | relative viability ([1]; 2.53 µM) | relative viability ([1]; 8 µM) | relative viability (Tosedostat; 0.02 µM) | relative viability (Tosedostat; 0.06325 µM) | relative viability (Tosedostat; 0.2 µM) | relative viability (Tosedostat; 0.6325 µM) | relative viability (Tosedostat; 2 µM) | relative viability (Tosedostat + Foretinib; first compound 0.6325 µM)
NCI-H2023 | 1.07 | 0.989 | 1.05 | 0.938 | 0.923 | 0.782 | 0.779 | 0.764 | 0.808 | 0.513 | 0.451 | 0.579 | 0.431 | 1.05 | 0.916 | 0.937 | 0.713 | 0.942 | –
NCI-H838 | 1.23 | 1.16 | 1.2 | 1.33 | 1.46 | 1.1 | 1.02 | 1.04 | 1.13 | 0.885 | 0.752 | 0.886 | 0.78 | 0.965 | 0.957 | 0.951 | 1.01 | 1.11 | 1.08
NCI-H647 | 1.25 | 1.22 | 0.936 | 1.08 | 1.14 | 1.36 | 1.14 | 1.18 | 1.17 | 0.65 | 0.642 | 0.66 | 0.413 | 1.02 | 1.01 | 1.02 | 0.977 | 0.883 | 1.04
NCI-H1437 | 1.13 | 1.09 | 1.15 | 1.09 | 0.99 | 1.3 | 1.32 | 1.34 | 1.25 | 0.741 | 0.642 | 0.707 | 0.632 | 1 | 0.987 | 1.05 | 0.97 | 0.889 | 1.25
NCI-H3122 | 1.05 | 1.05 | 0.996 | 1.05 | 1.03 | 1.01 | 0.901 | 1.01 | 1.07 | 0.47 | 0.444 | 0.478 | 0.432 | 1.06 | 1.01 | 1.03 | 1.02 | 1.02 | 0.967
IA-LM | 0.731 | 0.655 | 0.875 | 0.585 | 0.603 | 1.18 | 1.19 | 1.19 | 0.903 | 0.169 | 0.142 | 0.171 | 0.155 | 1.07 | 0.963 | 0.918 | 0.858 | 0.769 | 1.12
PC-14 | 1.03 | 0.999 | 1.04 | 0.994 | 1.06 | 0.948 | 0.936 | 0.987 | 0.912 | 0.896 | 0.778 | 0.817 | 0.846 | 1.14 | 0.951 | 0.962 | 0.928 | 0.806 | 0.868
SK-MES-1 | 1.23 | 1.29 | 1.29 | 1.11 | 1 | 0.691 | 0.889 | 0.914 | 0.86 | 0.859 | 0.79 | 0.912 | 0.783 | 1.03 | 1.02 | 1.01 | 0.965 | 0.953 | 0.873
NCI-H2170 | 0.654 | 0.586 | 0.572 | 0.533 | 0.63 | 1.01 | 1.04 | 0.958 | 1.05 | 0.481 | 0.52 | 0.607 | 0.444 | 0.997 | 0.963 | 1.02 | 0.984 | 0.89 | 0.959
NCI-H23 | 0.765 | 0.872 | 0.885 | 0.57 | 0.528 | 1.01 | 0.889 | 0.919 | 0.69 | 0.919 | 0.532 | 0.835 | 0.815 | 1.14 | 0.907 | 0.899 | 0.744 | 0.541 | 0.827
NCI-H596 | 1.01 | 1.06 | 1.01 | 0.996 | 0.805 | 0.905 | 0.872 | 0.938 | 0.839 | 0.982 | 0.806 | 1.06 | 0.813 | 1.03 | 1.08 | 1.12 | 1.01 | 0.967 | 0.764
SK-LU-1 | 0.889 | 0.854 | 0.939 | 0.608 | 0.771 | 0.975 | 0.724 | 0.662 | 0.652 | 0.935 | 0.783 | 0.943 | 0.722 | 1.1 | 1.09 | 0.92 | 0.938 | 0.854 | 0.792
LU99A | 0.813 | 0.869 | 0.774 | 0.832 | 0.683 | 0.894 | 0.729 | 0.758 | 0.674 | 1.05 | 0.783 | 0.721 | 0.758 | 1.04 | 1.11 | 0.99 | 0.857 | 0.813 | 0.708
NCI-H520 | 1.19 | 1.3 | 1.14 | 1.08 | 1.4 | 0.807 | 0.776 | – | 0.819 | 0.91 | 0.813 | 1.16 | 0.968 | 1.02 | 0.977 | 0.937 | 1.15 | 1.14 | 0.834
